The supplement of paper PMC10307832

Columns and labels:
Test in all cases: relative viability (nuclei count vs DMSO), 5 days (fraction); higher = more cells survive
Sulindac + Navitoclax = compound: CC1=C(CC(=O)O)c2cc(F)ccc2/C1=C\c1ccc([S+](C)[O-])cc1 [Sulindac] + CC1(C)CCC(c2ccc(Cl)cc2)=C(CN2CCN(c3ccc(C(=O)NS(=O)(=O)c4ccc(N[C@H](CCN5CCOCC5)CSc5ccccc5)c(S(=O)(=O)C(F)(F)F)c4)cc3)CC2)C1 [Navitoclax] (partner 0.5 µM)
Outline: (§1)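 Medians of duplicate plates are given as relative viability. That measure is the nuclei count in treated wells divided by the count in vehicle wells. Counts were taken on 4× images of lung cancer cell lines in 1536-well plates, 5 days after pin-tool dosing the day after seeding with one drug alone or a fixed anchor-drug dose plus five library-drug doses (not always all listed) in √10 steps.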

[1] = compound: CN[C@@H]1C[C@H]2O[C@@](C)([C@@H]1OC)n1c3ccccc3c3c4c(c5c6ccccc6n2c5c31)C(=O)NC4 [Staurosporine] + CS(=O)(=O)N1CCN(Cc2cc3nc(-c4cccc5[nH]ncc45)nc(N4CCOCC4)c3s2)CC1 [Pictilisib] (partner 1 µM)
Outline: as §1

[2] = compound: CN[C@@H]1C[C@H]2O[C@@](C)([C@@H]1OC)n1c3ccccc3c3c4c(c5c6ccccc6n2c5c31)C(=O)NC4 [Staurosporine] + CCNC(=O)c1noc(-c2cc(C(C)C)c(O)cc2O)c1-c1ccc(CN2CCOCC2)cc1 [Luminespib] (partner 0.01 µM)
Outline: as §1

Cell Line | relative viability (Sulindac + Navitoclax; first compound 0.08 µM) | relative viability (Sulindac + Navitoclax; first compound 0.253 µM) | relative viability (Sulindac + Navitoclax; first compound 0.8 µM) | relative viability (Sulindac + Navitoclax; first compound 2.53 µM) | relative viability (Sulindac + Navitoclax; first compound 8 µM) | relative viability ([1]; first compound 0.005 µM) | relative viability ([1]; first compound 0.01581 µM) | relative viability ([1]; first compound 0.05 µM) | relative viability ([1]; first compound 0.1581 µM) | relative viability ([1]; first compound 0.5 µM) | relative viability ([2]; first compound 0.005 µM) | relative viability ([2]; first compound 0.05 µM) | relative viability ([2]; first compound 0.1581 µM) | relative viability ([2]; first compound 0.5 µM) | relative viability ([2]; first compound 0.01581 µM)
201T | 1.19 | 1.15 | 1.27 | 1.16 | 1.23 | 0.595 | 0.451 | 0.551 | 0.463 | 0.42 | 1.03 | 0.693 | 0.349 | 0.334 | –
A549 | 1.63 | 1.29 | – | 1.21 | 1.46 | 0.259 | 0.0929 | 0.0679 | 0.061 | 0.0434 | – | – | – | – | –
A-427 | 1.07 | 0.94 | 0.985 | 0.926 | 1.04 | 0.524 | 0.335 | 0.329 | 0.103 | 0.106 | 0.712 | 0.231 | 0.159 | 0.149 | 0.463
ABC-1 | – | – | – | – | – | 0.256 | 0.164 | 0.112 | 0.0906 | 0.0638 | 0.261 | 0.147 | 0.156 | 0.0847 | 0.274
BEN | 0.0725 | 0.0631 | 0.065 | 0.0775 | 0.0638 | 0.836 | 0.612 | 0.474 | 0.251 | 0.204 | 0.397 | 0.383 | 0.152 | 0.129 | 0.256
CAL-12T | 1.67 | 1.35 | 0.969 | 1.38 | 1.42 | 0.303 | 0.0968 | 0.135 | 0.19 | 0.218 | 0.0969 | 0.0596 | 0.109 | 0.109 | 0.0675
COR-L23 | 1.19 | 1.09 | – | 0.964 | 1.3 | 0.32 | 0.148 | 0.127 | 0.0645 | 0.0442 | 0.262 | 0.083 | 0.0871 | 0.0485 | 0.324
COR-L 105 | 0.591 | 0.987 | 0.901 | 0.722 | 0.962 | 0.303 | 0.223 | 0.242 | 0.26 | 0.556 | 0.364 | 0.192 | 0.253 | 0.161 | 0.277
Calu-6 | 1.1 | 1.04 | 0.627 | 0.756 | 1.21 | 0.584 | 0.298 | 0.222 | 0.0573 | 0.0441 | – | – | – | – | –
ChaGo-K-1 | 1.01 | 0.925 | 1.21 | 0.897 | 1.56 | 0.692 | – | 0.52 | 0.244 | – | 0.7 | 0.374 | 0.185 | 0.176 | 0.344
EBC-1 | 0.377 | 0.387 | 0.36 | 0.344 | 0.431 | 0.167 | 0.112 | 0.126 | 0.154 | 0.139 | – | – | – | – | –
EKVX | 0.976 | 0.969 | 0.889 | 1.04 | 1.07 | 0.403 | 0.218 | 0.184 | 0.163 | 0.121 | 0.65 | 0.277 | 0.176 | 0.107 | 0.385
EMC-BAC-2 | 1.49 | 1.21 | 0.776 | 1.19 | 1.23 | 0.29 | 0.129 | 0.141 | 0.195 | 0.176 | 0.844 | 0.24 | 0.216 | 0.211 | 0.33
EPLC-272H | 1.16 | – | 0.828 | 1.23 | 1.27 | 0.333 | 0.141 | 0.176 | 0.1 | 0.0694 | 0.206 | 0.0679 | 0.0575 | 0.075 | 0.0928
H3255 | 0.54 | 0.685 | 0.551 | 0.512 | 0.612 | 0.325 | 0.238 | 0.145 | 0.135 | 0.0752 | 0.771 | 0.44 | 0.266 | 0.212 | 0.513
HARA | 1.21 | 1.24 | – | 1.18 | 1.14 | 0.193 | 0.23 | 0.0859 | 0.0523 | 0.062 | 0.697 | 0.297 | 0.0959 | 0.0973 | –
HCC-15 | 0.811 | 0.795 | 0.625 | 0.708 | 0.798 | 0.718 | – | 0.566 | 0.216 | 0.113 | 0.303 | 0.219 | 0.169 | 0.165 | –
HCC-44 | 1.21 | 1.08 | 0.904 | 1.15 | 1.02 | 0.147 | 0.152 | 0.13 | 0.133 | 0.131 | 0.416 | 0.161 | 0.187 | 0.137 | 0.169
HCC-78 | 0.784 | 0.716 | 0.711 | 0.71 | 0.77 | 0.212 | 0.175 | 0.178 | 0.223 | 0.206 | – | – | – | – | –
HCC-366 | 1.32 | 1.19 | 0.817 | 0.957 | 1.18 | 0.106 | 0.0757 | 0.0691 | 0.0727 | 0.0401 | – | – | – | – | –
HCC-827 | 1.04 | 1.02 | 0.997 | 0.973 | 1.08 | 1.24 | 0.812 | 0.559 | 0.552 | 0.43 | 0.997 | 0.13 | 0.139 | 0.121 | 0.532
HOP-62 | 0.982 | 1.37 | – | 1.21 | 1.22 | 0.182 | 0.0895 | 0.0986 | 0.0751 | 0.0641 | 0.949 | 0.189 | 0.134 | 0.109 | 0.426

Cell Line | relative viability (Sulindac + Navitoclax; first compound 0.08 µM) | relative viability (Sulindac + Navitoclax; first compound 0.253 µM) | relative viability (Sulindac + Navitoclax; first compound 0.8 µM) | relative viability (Sulindac + Navitoclax; first compound 2.53 µM) | relative viability (Sulindac + Navitoclax; first compound 8 µM) | relative viability ([1]; first compound 0.005 µM) | relative viability ([1]; first compound 0.01581 µM) | relative viability ([1]; first compound 0.05 µM) | relative viability ([1]; first compound 0.1581 µM) | relative viability ([1]; first compound 0.5 µM) | relative viability ([2]; first compound 0.005 µM) | relative viability ([2]; first compound 0.05 µM) | relative viability ([2]; first compound 0.1581 µM) | relative viability ([2]; first compound 0.5 µM) | relative viability ([2]; first compound 0.01581 µM)
IA-LM | 0.696 | 0.863 | – | 0.81 | 0.79 | 0.266 | 0.323 | 0.256 | 0.0809 | 0.0459 | – | – | – | – | –
LC-2-ad | 0.384 | 0.495 | 0.548 | 0.434 | 0.564 | 0.591 | 0.159 | 0.143 | 0.0807 | 0.0527 | 0.976 | 0.341 | 0.219 | 0.185 | 0.41
LCLC-97TM1 | 0.566 | 0.397 | 0.386 | – | 0.351 | 0.197 | 0.0972 | 0.152 | 0.119 | 0.153 | 0.829 | 0.338 | 0.268 | 0.221 | 0.416
LCLC-103H | – | – | – | – | – | 0.495 | 0.211 | 0.274 | 0.193 | 0.158 | 0.8 | 0.157 | 0.18 | 0.177 | 0.369
LK-2 | 1.03 | 0.91 | 0.722 | 0.768 | 0.891 | 0.789 | 0.812 | 0.466 | 0.199 | 0.0791 | 0.202 | 0.187 | 0.153 | 0.172 | –
LOU-NH91 | 0.726 | 0.772 | 0.552 | 0.638 | 0.748 | 0.521 | 0.38 | 0.338 | 0.277 | 0.279 | 0.355 | 0.209 | 0.289 | 0.212 | 0.279
LU99A | 0.964 | 0.781 | 0.689 | 0.73 | 0.878 | 0.187 | 0.158 | 0.186 | 0.122 | 0.114 | 0.21 | 0.134 | 0.137 | 0.123 | 0.176
LXF-289 | 1 | 0.97 | 0.953 | 0.999 | 0.965 | 0.48 | – | 0.111 | 0.0648 | 0.0482 | 0.584 | 0.246 | 0.0904 | 0.0899 | 0.13
NCI-H23 | 0.809 | 0.84 | 0.785 | 0.84 | 0.923 | 0.319 | 0.114 | – | 0.162 | 0.113 | 0.215 | 0.181 | 0.163 | 0.156 | 0.204
NCI-H322M | 1.28 | 1.37 | 1.08 | 1.27 | 1.29 | 0.683 | 0.384 | 0.312 | 0.309 | 0.252 | 0.631 | 0.259 | 0.274 | 0.182 | –
NCI-H358 | – | – | – | – | – | 0.317 | 0.261 | 0.162 | 0.141 | 0.139 | 0.563 | 0.359 | 0.167 | 0.0923 | 0.198
NCI-H441 | 0.395 | 0.588 | 0.519 | 0.478 | 0.822 | 0.426 | 0.152 | 0.178 | 0.155 | 0.12 | 0.36 | 0.195 | 0.231 | 0.148 | 0.216
NCI-H522 | – | – | – | – | – | – | – | – | – | – | 1.2 | 0.719 | 0.758 | 0.751 | 1.14
NCI-H650 | – | – | – | – | – | 0.416 | 0.297 | 0.344 | 0.24 | 0.233 | 0.474 | 0.235 | 0.11 | 0.092 | 0.248
NCI-H661 | – | – | – | – | – | 0.345 | 0.265 | 0.277 | 0.245 | 0.271 | 0.986 | 0.604 | 0.436 | 0.211 | 0.707
NCI-H1299 | 1.11 | 1.05 | 1.02 | 1.05 | 1.05 | 0.121 | 0.119 | 0.109 | 0.0457 | 0.0455 | – | – | – | – | –
NCI-H1563 | – | – | – | – | – | 0.749 | 0.594 | 0.577 | 0.498 | 0.433 | 0.54 | 0.504 | 0.446 | 0.408 | 0.481
NCI-H1623 | – | – | – | – | – | – | – | – | – | – | 0.55 | 0.401 | 0.419 | 0.296 | 0.531
NCI-H1703 | 1.14 | 0.978 | 0.877 | 1.1 | 1.45 | 0.223 | 0.175 | 0.191 | 0.163 | 0.114 | – | – | – | – | –
NCI-H2342 | – | – | – | – | – | – | – | – | – | – | 0.843 | 0.49 | 0.47 | 0.334 | 0.69
SW 900 | – | – | – | – | – | – | – | – | – | – | 0.164 | 0.134 | 0.14 | 0.161 | 0.149
